According to article PMC12281485, “High-Throughput Screening of Potent Drug-like Molecules Targeting 17β-HSD10 for the Treatment of Alzheimer’s Disease and Cancer” (ACS Chemical Biology, 2025):
Like-named read-outs stand apart in the source and are kept apart here.

Columns and labels:
17β-HSD10 [1] = molecular target: T1, 17β-HSD10 (Homo sapiens, UniProt Q99714); experiment: 17β-HSD10 enzyme inhibition dose-response assay (acetoacetyl-CoA/NADH, absorbance 340 nm); type: biochemical
T1 construct: Recombinant 17β-HSD10 was expressed and purified as previously described in Aitken et al; made in house
T1 sequence (Q99714 1-261): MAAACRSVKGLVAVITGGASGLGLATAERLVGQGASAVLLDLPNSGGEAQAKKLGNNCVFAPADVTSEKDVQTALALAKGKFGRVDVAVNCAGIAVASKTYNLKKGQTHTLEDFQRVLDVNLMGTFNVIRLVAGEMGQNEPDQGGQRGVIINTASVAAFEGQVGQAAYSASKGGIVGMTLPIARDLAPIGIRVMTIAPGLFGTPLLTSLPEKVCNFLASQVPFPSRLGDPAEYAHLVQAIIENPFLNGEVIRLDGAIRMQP
Description: Recombinant 17β-HSD10 was expressed and purified as previously described in Aitken et al.
17β-HSD10 screening was carried out as described in Aitken et al. with the exception that experiments were also conducted in clear-bottom 1536-well low-volume microplates (Corning) with a final assay volume of 20 μL. For primary screening, an endpoint assay format was adopted, in which an Echo acoustic liquid dispenser (Labcyte) was used to transfer 20 nL of either DMSO control […] or test compounds (10 μM) to the assay plate. 10 μL of the 17β-HSD10 enzyme in an assay buffer (2.5 nM) was then added to the plates using the Preddator liquid handling robot (Redd and Whyte), and plates were incubated at RT for 15 min. 10 μL of the substrate mixture (100 μM acetoacetyl-CoA and 100 μM NADH) was added with the Preddator. To start the reaction, the plates were left to incubate for 35 min at RT before the absorbance at 340 nm was read on the EnVision plate reader (PerkinElmer). For the kinetic assay format and dose-response follow-up experiments, the same protocol was adopted, except that the absorbance at 340 nm was monitored constantly for 45 min from immediately after the reaction was started.

[2] = Mouse hepatocyte metabolic stability; type: in vitro ADME; design: k (elimination constant): unit not given here; conditions: mouse hepatocytes; for Heps category: metabolism category; for Cl (clearance): limits of quantitation 0.5 and 50; for half-life: read-out: T1/2 (half-life)
Description: (§1) Hepatocyte isolation, hepatocyte incubations for metabolic stability, plasma protein binding (PPB) experiments, and LC/MS sample analysis were carried out as previously described in Brandon et al. and MacLeod et al.
XLfit (IDBS, UK) was used to calculate the exponential decay and the rate constant (k) from the ratio of the peak area of the test compound to the internal standard at each time point. […] Verapamil, 7-ethoxycoumarin, 7-hydroxycoumarin, and phthalazine were used as positive controls to confirm acceptable assay performance. […] Values were transferred to RStudio v1.3.1093 (Posit, Boston, MA, USA) for generation of scatter plots and heatmaps using the ggplot2 package (Wickham 2016).

17β-HSD10 [3] = molecular target: T1, 17β-HSD10; experiment: Acetoacetyl-CoA and NADH enzyme kinetics (mode of inhibition); type: biochemical; conditions: for mode of inhibition with respect to acetoacetyl-CoA (AcAc): AcAc diluted from 1000 μM, 100 μM NADH; for mode of inhibition with respect to NADH: AcAc in excess at 800 μM, NADH diluted from 150 μM
Description: To determine the mode of inhibition, a matrix titration was used to calculate the kinetic parameters for acetoacetyl-CoA and NADH and the effect of 17β-HSD10 concentration upon reaction rate. Previously determined conditions as described in Aitken et al. were used. Data collected from the experiment were analyzed by plotting reaction progress curves to calculate the initial velocities, Vmax, and Km values using the Michaelis–Menten equation (XLFit, ID Business Solutions). Hanes Woolf plots were used to determine the mechanism of inhibition. Two compounds, ESC1002033 and ESC1002082, representative of the two unique clusters, were investigated for their mechanism of action against the substrates, NADH (Supplementary C, Figure S2) and AcetoAcetyl-CoA (AcAc) (Supplementary C, Figure S3). Both ESC1002033 and ESC1002082 inhibitors were tested as a 12-point serial dilution series with a maximal concentration of 2.5 μM. […] When investigating the effect of AcAc, it was diluted from 1000 μM with an excess of 100 μM NADH. Both inhibitors appear to have a similar mechanism of action. For NADH, with increasing concentration of the inhibitor, there is a decrease in Vmax (Figure SC1B) with no change in Km (Figure SC1C), which is characteristic of non-competitive (mixed) inhibition. This is also reflected by the convergence of the data to the left of the y axis on the Lineweaver–Burke plot (Figure SC1D). In contrast, with AcAc present, there was an increase in Kmapp with increasing inhibitor concentrations (Figure SC2C), which is characteristic of competitive inhibition. […] However, the data in Figure SC2D have been fitted for substrate inhibition (Y = V max × X/(Km + X × (1 + X/K i))), and the diagnostic Lineweaver–Burke plot also supports the conclusion that inhibition is competitive with AcAc (Figure SC2D).

[4] = tested on: HEK293 cells overexpressing 17β-HSD10; experiment: LDH cytotoxicity assay; type: cell-based, human; conditions: 50 μM compound, 24 h, n = 3 ± SD
Description: Cell cytotoxicity was assessed via the measurement of LDH leakage into the culture medium using a commercially available kit from Pierce (Thermo Scientific cat no. 88953). This was carried out in accordance with the kit guidelines, with the activity of LDH being calculated from the change in absorbance at […]. Human embryonic kidney (HEK293) cells overexpressing 17β-HSD10 were cultured in phenol-red free media (10% FBS, 1 mM sodium pyruvate, 100 units penicillin, 0.1 mg mL^–1 streptomycin, and 2 mM L-glutamine) and seeded at a density of 10,000 cells per well (100 μL, 96-well plates). […] Treated cells were then incubated at 37 °C and CO2 (5%) for 24 h before the LDH assay was performed as per the manufacturer’s instructions. Spontaneous control (water) and maximum control (lysis buffer) were used in accordance with the kit guide. Absorbance was measured at 490 and 680 nm using the SpectraMaxM2e spectrophotometer. The measured LDH activity was used to calculate %cytotoxicity using the following equation (eq ): %cytotoxicity=(compoundtreatedLDHactivity−spontaneousLDHactivity)/(maximumLDHactivity−spontaneousLDHactivity)×100 1

[5] = tested on: HEK293 cells overexpressing 17β-HSD10; experiment: Alamar Blue cell viability assay; type: cell-based, human; conditions: 50 μM compound, 24 h, n = 3 ± SD
Description: (§2) Cell viability was assessed via fluorescence change using the commercially available Alamar Blue from ThermoFisher. HEK293 cells overexpressing 17β-HSD10 were cultured in phenol-red free media (10% FBS, 1 mM sodium pyruvate, 100 units penicillin, 0.1 mg mL^–1 streptomycin, and 2 mM L-glutamine) and seeded at a density of 10,000 cells per well (100 μL, 96-well plates). […] Treated cells were then incubated at 37 °C and CO2 (5%) for 24 h before the assay was performed as per the manufacturer’s instructions. Fluorescence was measured at 530 nm excitation and 590 nm emission using the SpectraMaxM2e spectrophotometer.

17β-HSD10 [6] = molecular target: T1, 17β-HSD10; experiment: (−)-CHANA fluorescence assay of cellular 17β-HSD10 activity; type: cell-based; conditions: read-out: cellular 17β-HSD10 activity mean pEC50 (converted)
Description: (−)–CHANA ((−)-cyclohexenyl amino naphthalene alcohol) is a fluorogenic probe that can be used to detect 17β-HSD10 activity in living cells. HEK293 17β-HSD10 cells were seeded at a density of 10,000 cells per well (100 μL, 96-well black plates) in phenol-red free media (10% FBS, 1 mM sodium pyruvate, 100 units penicillin, 0.1 mg mL^–1 streptomycin, and 2 mM L-glutamine). […] The fluorogenic probe (−)–CHANA was then added to each well to give a final assay concentration of 20 μM. Fluorescence was immediately measured using the FLUOstar Optima microplate reader (excitation = 380 nm, emission = 520 nm, orbital averaging = 3 mm), and the initial reaction was monitored for 3–4 h. EC50 was calculated from the control-subtracted triplicates using nonlinear regression (four parameters) of GraphPad Prism 5 software. The Final EC50 and SEM values were obtained as a mean of at least three independent measurements.

[7] = Alamar Blue cell viability assay; type: cell-based, human; conditions: human, HEK293 cells overexpressing 17β-HSD10, 50 μM compound, n = 3 ± SD, read-out: Alamar Blue % viability (50 μM dose)
Description: as §2

[8] = Mouse plasma protein binding; type: in vitro ADME; conditions: read-out: mouse PPB (% free)
Description: as §1

[9] = Table 2, chemically modified cluster hit compounds, read-out: 17β-HSD10 pIC50 (converted)
[10] = Table 5, read-out: mean 17β-HSD10 pIC50 (converted)
[11] = Table 4, 17β-HSD10 overexpressing HEK293 cells, CHANA fluorescence assay
[12] = Table 3, chemically modified singleton hit compound series, read-out: 17β-HSD10 pIC50 (converted)
[13] = Table 5, HEK293 17β-HSD10 cells, CHANA assay

Row | SMILES | IC50 (17β-HSD10 [1]; [10]) [nM] | k (elimination constant) [2] | Heps category [2] | Cl (clearance) [2] [mL/min/g liver] | half-life [2] [min] | LDH % toxicity (50 μM dose) [4] [%] | Alamar Blue % viability (50 μM dose) [5] [%] | EC50 (17β-HSD10 [6]; [11]) [nM] | IC50 (17β-HSD10 [1]; [12]) [nM] | viability at 24 h, 50 μM [7] [%] | EC50 (17β-HSD10 [6]; [13]) [nM] | other results
1 | CC(C)CN(C(=O)c1ccccc1F)c1cccc(N(C)Cc2cnc[nH]2)c1 [ESC1002033] | 200 | 0.013 | mod | 6.2 | 53.8 | – | – | – | – | – | – | IC50 (17β-HSD10 [1]; [9]): 200 nM; mode of inhibition with respect to acetoacetyl-CoA (AcAc) (17β-HSD10 [3]): competitively; mode of inhibition with respect to NADH (17β-HSD10 [3]): non-competitively
2 | COc1ccc(-c2ccccc2C2CCCN2C(=O)c2sccc2C)cn1 (stereo not shown) [ESC1002082] | – | – | – | – | – | – | – | – | – | – | – | LipE (17β-HSD10 [1]): 1.45; LipE (17β-HSD10 [1]; Table 1, lipophilic efficiency): 1.45; mode of inhibition with respect to acetoacetyl-CoA (AcAc) (17β-HSD10 [3]): competitively; mode of inhibition with respect to NADH (17β-HSD10 [3]): non-competitively
3 | COc1ccc(-c2ccccc2[C@H]2CCCN2C(=O)c2sccc2C)cn1 [ESC1002162] | – | – | – | – | – | 6.84 ± 0.02 | 78.79 ± 0.91 | 1130 | – | – | – | 17β-HSD10 pIC50 (17β-HSD10 [1]; Supplementary B, Table S1 and text, enantiomers): 6.31
4 | Cc1ncc(CN(C)c2cccc(N(CC(C)C)C(=O)c3ccccc3F)c2)[nH]1 [ESC1002203] | – | – | – | – | – | 6.64 ± 0.03 | 82.98 ± 1.25 | 2460 | – | – | – | fold less potent than ESC1002033 (17β-HSD10 [1]; relative to ESC1002033): approximately 3 fold
5 | COc1cccc(-c2ccccc2C2CCCN2C(=O)c2sccc2C)c1 (stereo not shown) [ESC1002421] | – | – | – | – | – | 5.16 ± 0.01 | 102.63 ± 1.32 | 671 | 186 | – | – | –
6 | CC(C)CN(C(=O)c1c(F)cccc1F)c1cccc(N(C)Cc2c[nH]cn2)c1 [ESC1002456] | 138 | 0.018 | high | 8.6 | 38.5 | 4.78 ± 0.01 | – | 141 | – | 79.2 ± 1.21 | 141 | IC50 (17β-HSD10 [1]; [9]): 138 nM; fraction unbound [8]: 0.089
7 | Cc1ccsc1C(=O)N(CC(C)C)c1cccc(N(C)Cc2c[nH]cn2)c1 [ESC1002597] | – | 0.02 | Mod | 7.2 | – | 4.98 ± 0.04 | 78.78 ± 1.72 | 511 | – | – | 511 | mean 17β-HSD10 pIC50 (17β-HSD10 [1]; Table 5): 6.4; T1/2 (half-life) [2]: 46.2 min
8 | O=C(c1sccc1Cl)N1CCCC1c1ccccc1-c1cccc(O)c1 (stereo not shown) [ESC1002755] | 18.6 | 0.22 | high | >50 | 3.1 | 5.47 ± 0.04 | – | 28 | 20 | 85.3 ± 2.01 | 28 | fold improvement in activity/potency over hit ESC1002082 (17β-HSD10 [1]; relative to ESC1002082): 40 fold
9 | COc1cccc(-c2ccccc2C2CCCN2C(=O)c2[nH]ncc2Cl)c1 (stereo not shown) [ESC1002757] | 105 | 0.13 | high | >50 | 5.3 | 5.03 ± 0.02 | – | 266 | 115 | 89.52 ± 0.84 | 266 | LipE (17β-HSD10 [1]): 2.76
10 | O=C(c1sccc1Cl)N1CCCC1c1ccccc1-c1ccc(F)c(O)c1 (stereo not shown) [ESC1002838] | – | – | – | – | – | 5.58 ± 0.03 | 94.28 ± 1.31 | 232 | 51.3 | – | – | –
